From the NIST ThermoML archive (doi:10.1016/j.fluid.2013.09.029)

Conditions: Liquid; for mass density: 298.15 K, 101.33 kPa, Vibrating tube method; for vapor or sublimation pressure: Closed cell (Static) method

CC(C)(C)O [2-methylpropan-2-ol]
Conditions	mass density [kg/m3]	vapor or sublimation pressure [kPa]
–	781.04	–
330.9 K	–	34.9
331.1 K	–	35.3
340.6 K	–	54
350.6 K	–	82.6
360.1 K	–	121.2
369.5 K	–	171.4
378.5 K	–	232.1
387.7 K	–	310.6
396.7 K	–	406.4

CCC(C)O (configuration not stated) [butan-2-ol]
Conditions	mass density [kg/m3]	vapor or sublimation pressure [kPa]
–	802.47	–
332.9 K	–	18
342.9 K	–	29.2
352.5 K	–	45
361.3 K	–	65
371.1 K	–	96
381.1 K	–	137.6
391.9 K	–	197.5
401.4 K	–	266.1
412 K	–	361.8
421.6 K	–	471.4

CCCCCO [pentan-1-ol]
Conditions	mass density [kg/m3]	vapor or sublimation pressure [kPa]
–	811.04	–
333.1 K	–	3.1
344.8 K	–	6
354.4 K	–	10
362.4 K	–	14.8
371.2 K	–	21.9
381.6 K	–	34.1
391.5 K	–	50.2
401.7 K	–	73.1
411.4 K	–	102.1
422.4 K	–	145.2
